Laboratory results taken from patent publication US10807960B2, “Compounds, compositions, and methods for controlling biofilms” (KATHOLIEKE UNIVERSITEIT LEUVEN, priority 2015, dated 2020).
Like-named read-outs stand apart in the source and are kept apart here. Marks after values point to notes of the source that are not given here.

Tests used:
[1] = test system: S. aureus SH1000; assay: static peg (Calgary Biofilm Device) anti-biofilm assay, crystal violet and OD600; details: 37° C.
[2] = test system: C. albicans SC5314 + S. epidermidis; assay: mixed C. albicans/S. epidermidis biofilm assay, selective plating; format: cell-based, Candida albicans; Staphylococcus epidermidis; details: for CFUs % survival C.a.: C. albicans in mixed biofilm with S. epidermidis; for CFUs % survival C.a. / CFUs % survival S.e.: 37° C.; for CFUs % survival S.e.: S. epidermidis in mixed biofilm with C. albicans
Experimental: The concentrations 25 μM (0.0625% DMSO or ethanol) and 100 μM (0.25% DMSO or ethanol) were tested. After 24 h of incubation at 37° C., biofilms were washed with PBS and fresh medium with or without compounds was added. After further incubation for 48 h at 37° C., the biofilms were washed with PBS after which the cells were re-suspended in 100 μl of PBS by scraping off, sonication (1 min, 45 kHz, USC300-T; VWR, Radnor, Pa., USA) and vigorously pipetting up-and-down. Finally, the biofilm cells were diluted in PBS and plated on YPD agar plates containing 100 mg/L ampicillin and TSA plates containing 25 mg/L amphotericin B, to determine the number of fungal and bacterial CFUs after 2 days of incubation at 37° C., respectively. The percentage of C. albicans SC5314 and S. epidermidis cells was determined relative to the DMSO or ethanol control treatment.

[3] = test system: P. gingivalis ATCC33277; assay: static peg (Calgary Biofilm Device) anti-biofilm assay, crystal violet and OD600; details: 37° C.
[4] = test system: S. Typhimurium ATCC14028; assay: as above; details: read-out: BIC50; biofilm formation, 25° C.
[5] = test system: S. aureus ATCC6538; assay: as above; details: 37° C.
[6] = test system: S. liquefaciens MG44; assay: as above; format: cell-based, Serratia liquefaciens
[7] = test system: C. albicans SC5314; assay: inhibition of C. albicans biofilms, cell titer blue (CTB) quantification; format: cell-based, Candida albicans; details: biofilm formation, read-out: BIC50
Experimental: The potential of the compounds to prevent C. albicans SC5314 biofilm formation was assessed using the cell titer blue (CTB) quantification method (26). For the CTB method, an overnight culture of C. albicans SC5314 was washed with PBS and a cell suspension of 10^6 cells/ml (OD600=0.1) was prepared in RPMI 1640 medium (pH 7.0). […] After 16 h of static incubation at 37° C., biofilms were washed and quantified with CTB as described previously.

[8] = test system: B. cepacia LMG1222T; assay: static peg (Calgary Biofilm Device) anti-biofilm assay, crystal violet and OD600; details: 25° C.
[9] = test system: S. epidermidis; assay: as above; details: 37° C.
[10] = test system: C. albicans SC5314 + E. coli MG1655; assay: mixed C. albicans/E. coli biofilm assay, selective plating; format: cell-based, Candida albicans; E. coli; details: 37° C.; for CFUs % survival E. coli: E. coli in mixed biofilm with C. albicans
Experimental: Overnight cultures of C. albicans SC5314 (YPD) and E. coli MG1655 (TSB). were washed three times with PBS, after which they were diluted in RPMI medium to optical densities at 600 nm (OD600) of 1 and 0.01, respectively. Equal volumes of these cell suspensions were mixed, and 100 μl of this mixed cell suspension together with compound was added to the wells of a microtiter plate in triplicate. The concentrations 25 μM (0.0625% DMSO or ethanol) and 100 μM (0.25% DMSO or ethanol) were tested. After 24 h incubation at 37° C. the medium was removed and the biofilm was washed with PBS. Next, the cells were re-suspended in 100 μl of PBS by scraping off, sonication (1 min, 45 kHz, USC300-T; VWR, Radnor, Pa., USA) and vigorously pipetting up-and-down. Finally, dilution series were made, and quantification of E. coli MG1655 and C. albicans SC5314 populations was performed using selective plating on TSA plates containing 25 mg/L amphotericin B and YPD plates containing 100 μg/ml tetracycline, respectively. The percentage of C. albicans SC5314 and E. coli MG1655 cells was determined relative to the DMSO or ethanol control treatment.

[11] = test system: S. aureus ATCC6538 + S. epidermidis; assay: mixed S. aureus/S. epidermidis biofilm assay, crystal violet; format: cell-based; details: 37° C. (Table 3)
Experimental: Overnight cultures of S. aureus ATCC6538 and S. epidermidis were grown in LB medium and were diluted 1/200 in the same vial of TSB to form a mixed culture suspension.

[12] = test system: E. coli TG1; assay: static peg (Calgary Biofilm Device) anti-biofilm assay, crystal violet and OD600; details: 37° C.
[13] = read-out: BIC50, biofilm formation
[14] = biofilm formation, 25° C., read-out: BIC50
[15] = planktonic growth, 25° C., read-out: IC50
[16] = C. albicans in mixed biofilm with E. coli MG1655, 25 μM
[17] = C. albicans in mixed biofilm with E. coli MG1655, 100 μM
[18] = mixed biofilm formation, read-out: BIC50
[19] = planktonic growth of mixed culture, read-out: IC50

Compound: CC(C)CNc1ncc(-c2ccc(Cl)cc2)[nH]1 [Compound 3]
- IC50 ([1]; planktonic growth): ~175 µM
- IC50 [1, 13]: ~200 µM
- CFUs % survival C.a. ([2]; 25 μM): 58.3* %
- CFUs % survival C.a. ([2]; 100 μM): 235.1%
- CFUs % survival S.e. ([2]; 25 μM): 64.6* %
- CFUs % survival S.e. ([2]; 100 μM): 13.2* %
- IC50 ([3]; planktonic growth): 5.1 µM
- IC50 [3, 13]: 5.3 µM
- IC50 [4]: 2 µM
- IC50 ([5]; planktonic growth): ~96.1 µM
- IC50 [5, 13]: 95.3 µM
- IC50 [6, 14]: 10.4 µM
- IC50 [6, 15]: 154 µM
- IC50 ([7]; 37° C.): 93.9 µM
- IC50 ([8]; planktonic growth): > 400 µM
- IC50 [8, 13]: 88.1 µM
- IC50 ([9]; planktonic growth): 86.2 µM
- IC50 [9, 13]: > 400 µM
- CFUs % survival C.a. [10, 16]: 143.4%
- CFUs % survival C.a. [10, 17]: 59.6* %
- CFUs % survival E. coli ([10]; 25 μM): 138.5%
- CFUs % survival E. coli ([10]; 100 μM): 63.0* %
- IC50 [11, 18]: ~26.3 µM
- IC50 [11, 19]: ~140 µM
- IC50 ([12]; planktonic growth): 30 µM
- IC50 [12, 13]: 110 µM

Compound: Clc1ccc(-c2cnc(NC3CCCC3)[nH]2)cc1 [Compound 5]
- IC50 ([1]; planktonic growth): 71.5 µM
- IC50 [1, 13]: 70.6 µM
- activity against S. epidermidis in the C. albicans/S. epidermidis biofilm (in words) ([2]; 100 μM): complete inhibition
- CFUs % survival C.a. ([2]; 25 μM): 167.9%
- CFUs % survival C.a. ([2]; 100 μM): 594.7%
- CFUs % survival S.e. ([2]; 25 μM): 72.0%
- CFUs % survival S.e. ([2]; 100 μM): 2.3* %
- IC50 ([3]; planktonic growth): 4 µM
- IC50 [3, 13]: 5.7 µM
- IC50 [4]: 4.4 µM
- IC50 ([5]; planktonic growth): 62.3 µM
- IC50 [5, 13]: 34.4 µM
- IC50 [6, 14]: 8.8 µM
- IC50 [6, 15]: 125 µM
- IC50 ([7]; 37° C.): 64 µM
- IC50 ([8]; planktonic growth): > 400 µM
- IC50 [8, 13]: 331 µM
- IC50 ([9]; planktonic growth): 39.5 µM
- IC50 [9, 13]: > 400 µM
- CFUs % survival C.a. [10, 16]: 100.8%
- CFUs % survival C.a. [10, 17]: 38.3* %
- CFUs % survival E. coli ([10]; 25 μM): 100.6%
- CFUs % survival E. coli ([10]; 100 μM): 105.6* %
- IC50 [11, 18]: ~66.6 µM
- IC50 [11, 19]: ~91.7 µM
- IC50 ([12]; planktonic growth): 17.1 µM
- IC50 [12, 13]: ~45.7 µM

Compound: CCCCCCCCn1c(-c2ccc(Cl)cc2)cnc1N [Compound 2]
- IC50 ([1]; planktonic growth): 8.3 µM
- IC50 [1, 13]: 3.4 µM
- biofilm formation of C. albicans/S. epidermidis (in words) ([2]; 25 μM): completely inhibited
- CFUs % survival C.a. ([2]; 25 μM): <0.6* %
- CFUs % survival C.a. ([2]; 100 μM): <0.2* %
- CFUs % survival S.e. ([2]; 25 μM): 0.0* %
- CFUs % survival S.e. ([2]; 100 μM): 0.0* %
- IC50 ([3]; planktonic growth): 6 µM
- IC50 [3, 13]: 3.9 µM
- IC50 [4]: ~5.9 µM
- IC50 ([5]; planktonic growth): 7.8 µM
- IC50 [5, 13]: 2.8 µM
- IC50 ([6]; biofilm formation, read-out: BIC50): 18.8 µM
- IC50 ([6]; planktonic growth, read-out: IC50): 38 µM
- IC50 [7]: 6.2 µM
- IC50 ([8]; planktonic growth): > 400 µM
- IC50 [8, 13]: 145 µM
- IC50 ([9]; planktonic growth): ~11.1 µM
- IC50 [9, 13]: ~5.6 µM
- CFUs % survival C.a. [10, 16]: 104.9%
- CFUs % survival C.a. [10, 17]: 0.0* %
- CFUs % survival E. coli ([10]; 25 μM): 158.6%
- CFUs % survival E. coli ([10]; 100 μM): 0.1* %
- IC50 [11, 18]: ~7.2 µM
- IC50 [11, 19]: ~9.9 µM
- IC50 ([12]; planktonic growth): 7.7 µM
- IC50 [12, 13]: ~6.5 µM
